Source: paper PMC8273696, “Colombian Scorpion Centruroides margaritatus: Purification and Characterization of a Gamma Potassium Toxin with Full-Block Activity on the hERG1 Channel” (Toxins, 2021)
Entries after “also recorded” stand apart in the source; their conditions may differ. Like-named read-outs stand apart in the source and are kept apart here. Positions of bridges follow the written chain, without caps; N, C: chain ends. No end group written: not given here.

Legend:
[1] = tested on: ERG potassium channels (hERG1); conditions: ref [22],[46]; cited from earlier work
Excerpt: Scorpion venom is a mixture of proteins, peptides and enzymes, carbohydrates, free amines, nucleotides, lipids, and other low molecular weight components with unknown function. Peptides that act as ion channel modulators are the main agents responsible for the venom toxicity and they have been classified according to their targets into: sodium scorpion toxins (NaScTx), with molecular masses between 6–8 kDa, potassium scorpion toxins (KScTx), with molecular masses between 3–5 kDa, and calcium scorpion toxins (CaScTx) that comprise peptides acting on voltage gated calcium channel ... || The effect of the CmERG1 toxin was evaluated on the hERG1 channel by means of electrophysiology experiments. […] Dose response curves were calculated by application of toxin concentrations from 1 nM to 1 µM. […] This feature is different from the other γKTxs, like CnERG1, ... || Two models were proposed to explain the uncommon feature of the γKTxs that comprises a partial current block, despite the saturation concentration, and the acceleration of the closing process due to the toxin preference for the channel closed state. In one kinetic model proposed by Hill and collaborators, first the toxin binds to the channel in a toxin channel encounter complex permissive to ion flow (TC*) and then passes to the blocked toxin-channel complex (TC). […]

[2] = molecular target: T1, hERG1 channel (Homo sapiens, UniProt Q12809); assay: Patch-clamp electrophysiology, block of hERG1 tail currents (dose-response) in CHO cells stably expressing hERG1; type: cell-based; conditions: for activity on hERG1 channels, in words (venom fraction screening / purified peptide): electrophysiology screening
T1 construct: expressed in transfected cells
Protocol: CHO cells stably expressing hERG1 potassium channels were used for the electrophysiological experiments (hERG1 accession number: NP_000229). We previously prepared this cell line stably transfecting CHO cells with plasmid pcDNA3.1-hERG1 (a kind gift from Enzo Wanke from University of Milano-Bicocca, Italy). Briefly: CHO cells at 80% confluence in a 35 mm culture plate were transfected with 2 µg of pcDNA3.1-hERG1 mixed with 7 uL of Lipofectamine (Invitrogen), accordingly to the manufacturer instructions. After 3 days, cells were selected by adding to the culture medium 2 mg/mL of G418 (SIGMA). After 10 days of selection, cells were cloned by limiting dilution and the resulting clones were probed for their current expression by electrophysiological recordings. High glucose DMEM (Dulbecco’s Modified Eagle Medium, SIGMA, Naucalpan de Juarez, Edo de Mexico, Mexico), supplemented with 10% Fetal Bovine Serum (Biotecfron, Emiliano Zapata, Morelos, Mexico) and with 500 µg/mL of antibiotic G418 (SIGMA) was used as growth medium. Cells were routinely maintained at 37 °C with 5% of CO2 in humidified atmosphere.
Intracellular solution contained in mM: 130 K-Aspartate, 10 NaCl, 2 MgCl2, 10 HEPES, 10 EGTA, pH 7.3 adjusted with NaOH. Extracellular solution contained in mM: 95 NaCl, 40 KCl, 2 CaCl2, 2 MgCl2, 10 HEPES, 5 glucose, pH 7.3 adjusted with NaOH. A concentrated 100–1000× stock was prepared dissolving lyophilized toxin in distilled water and stored at −20 °C until the used (no more than 3 weeks). Solutions were delivered to the cell under patch by means of an active perfusion system connected to a variable speed syringe pump (model A-99 from Razel Scientific Instruments (Saint Albans VT, USA)). The perfusion rate was approximately 1µL/s.
Patch pipettes were manufactured from capillary borosilicate glass tubing (Warner Instruments, Hamden, CT, USA) by means of a vertical puller model P-30 (Sutter Instrument, Novato, CA, USA). When pipettes were filled with internal solution, pipette resistance was between 1.5–3 MOhm.
During the depolarizing steps, hERG1 currents are usually small (Figure S1). This is a consequence of the slow activation kinetics (in seconds) and the very fast inactivation kinetics (in milliseconds) of this channel that can be considered an inward rectifier. Therefore, it is a common practice to record the tail currents during the hyperpolarization, where the inactivation is quickly removed and the deactivation occurs slowly. For the dose response curve (Figure 3), tail currents of hERG1 were recorded at −120 mV for 500 ms, after a preconditioning pulse at 60 mV for 500 ms every 5 s. Peak currents recorded in absence and in presence of the toxin were normalized to the maximal peak current in control condition and plotted versus the logarithm of toxin concentration. Data were fitted by a logistic equation. For the voltage dependence of activation study, hERG1 tail currents were recorded during a step at −120 mV for 500 ms, preceded by a 5 s depolarization steps in the range between 30 to −80 mV. To determine the voltage dependence of inactivation, currents were recorded after a depolarization at 40 mV for 1 s, during depolarization steps in the range between 40 to −170 mV. Currents recorded at potentials lower than −90 mV were corrected for deactivation: the deactivation process was fitted by a single exponential extrapolated to the zero point of each step. Data from both activation and inactivation protocols, in absence and in presence of the toxin, were normalized, plotted versus membrane potential, and fitted by a Boltzmann function.
Currents were acquired by using MultiClamp 700A amplifier and DigiData 1440a (Molecular Devices, San Jose, CA, USA). Off-line analysis and graphs were performed by using Clampfit 10 (Molecular Devices) and Origin 8 (OriginLab, Northampton MA, USA).
Where it is not otherwise indicated, electrophysiological data represent the mean of 3–6 cells ± standard error (S.E.). […]

[3] = molecular target: T1, hERG1 channel; assay: Patch-clamp, voltage dependence of activation of hERG1; type: cell-based; conditions: 4 nM
Protocol: To understand better the activity of CmERG1 on hERG1, we analyzed the voltage dependence of the activation and inactivation processes in presence or absence of CmERG1 at 4 nM, a concentration close to the IC50. For the activation, tail currents were elicited at −120 mV after 5 s preconditioning pulses from 30 to −80 mV (Figure 4A). Figure 4B,C illustrates typical currents recorded in the absence and in the presence of CmERG1. Tail currents were normalized, plotted versus preconditioning potentials, and fitted to a Boltzmann equation (Figure 4D). […]
Figure 4 Effect of CmERG1 at 4 nM on the voltage dependence of activation and inactivation. […] (B,C) typical example of tail currents recorded in control conditions and during application of CmERG1, respectively. […] Black lines are the best fit obtained to a Boltzmann equation giving V1/2 for activation of −37.5 ± 1.4 mV and −34.8 ± 0.8 mV and slope of 6.0 ± 0.3 and 8 ± 0.7 for the control and in the presence of 4 nM CmERG1, respectively (mean ± SE and n = 5, analyzed by paired sample t-test at 0.05 level). […] Currents recorded at potentials lower than −90 mV were corrected for deactivation as shown in the inset of panel (F). […] (F,G) typical example of currents recorded in control conditions and in presence of 4 nM CmERG1 respectively. […]

[4] = molecular target: T1, hERG1 channel; assay: Patch-clamp, voltage dependence of (steady state) inactivation of hERG1; type: cell-based; conditions: 4 nM, n = 5
Protocol: Figure 4 Effect of CmERG1 at 4 nM on the voltage dependence of activation and inactivation. (A) Stimulation protocol used to study the voltage dependence of activation. Tail currents were elicited by 5 s preconditioning steps ranging from +30 to −80 mV, followed by a 500 ms pulse at −120 mV. (B,C) typical example of tail currents recorded in control conditions and during application of CmERG1, respectively. (D) Voltage dependence of activation. Normalized peak currents are plotted against the voltage of the preconditioning pulses in control conditions (black squares) and in the presence of 4 nM CmERG1 (grey squares). Black lines are the best fit obtained to a Boltzmann equation giving V1/2 for activation of −37.5 ± 1.4 mV and −34.8 ± 0.8 mV and slope of 6.0 ± 0.3 and 8 ± 0.7 for the control and in the presence of 4 nM CmERG1, respectively (mean ± SE and n = 5, analyzed by paired sample t-test at 0.05 level). (E) Stimulation used to study the voltage dependence of inactivation. Currents were elicited by a 1 s preconditioning pulse at 40 mV followed by depolarization steps ranging from −170 mV to 40 mV. Currents recorded at potentials lower than −90 mV were corrected for deactivation as shown in the inset of panel (F). The deactivation process was fitted by a single exponential (grey dash line) extrapolated to the zero point of the depolarization step, indicated by the arrow. (F,G) typical example of currents recorded in control conditions and in presence of 4 nM CmERG1 respectively. (H) Voltage dependence of inactivation. […] Black lines are the best fit obtained by a Boltzmann equation giving V1/2 for inactivation of −77.6 ± 3.6 mV and −79 ± 1.3 mV and slope of 28.2 ± 2.2 and 29 ± 1.5 for control conditions and in presence of 4 nM CmERG1, respectively (mean ± SE and n = 5, analyzed by paired sample t-test at 0.05 level).
For steady state inactivation, tail currents were recorded during 500 ms depolarization steps from −170 to 40 mV, after a depolarization at 40 mV for 1 s (Figure 4E). Figure 4F,G show an example of currents recorded in the absence and in the presence of toxin. […]

[5] = tested on: Kv1.2 channel; conditions: affinity compared with Kv1.3; ref [31] (ref [30],[31]); cited from earlier work
Excerpt: (§1) Until now, little is known about the C. margaritatus venom composition. […] Thereafter, in a proteomics study of C. margaritatus venom, two other peptides were isolated and characterized: a peptide with 24 amino acids and 3 disulfide bridges (MW = 2609.15 Da) and a peptide with 30 amino acids and 3 disulfide bridges (MW = 3376 Da), both cla ... || Despite the fact that the C. margaritatus scorpion belongs to the Buthidae […], its venom has been considered of low toxicity, but as mentioned above, in Colombia this species has caused a few cases of moderate and severe scorpionism.

[6] = tested on: Kv1.3 channel; conditions: human peripheral T lymphocytes, ref [30] (ref [30],[31]), cited from earlier work
Excerpt: as §1

[7] = tested on: Kv1.1 channel; conditions: affinity compared with Kv1.3; ref [31] (ref [30],[31]); cited from earlier work
Excerpt: as §1

T1 sequence (Q12809 whole entry): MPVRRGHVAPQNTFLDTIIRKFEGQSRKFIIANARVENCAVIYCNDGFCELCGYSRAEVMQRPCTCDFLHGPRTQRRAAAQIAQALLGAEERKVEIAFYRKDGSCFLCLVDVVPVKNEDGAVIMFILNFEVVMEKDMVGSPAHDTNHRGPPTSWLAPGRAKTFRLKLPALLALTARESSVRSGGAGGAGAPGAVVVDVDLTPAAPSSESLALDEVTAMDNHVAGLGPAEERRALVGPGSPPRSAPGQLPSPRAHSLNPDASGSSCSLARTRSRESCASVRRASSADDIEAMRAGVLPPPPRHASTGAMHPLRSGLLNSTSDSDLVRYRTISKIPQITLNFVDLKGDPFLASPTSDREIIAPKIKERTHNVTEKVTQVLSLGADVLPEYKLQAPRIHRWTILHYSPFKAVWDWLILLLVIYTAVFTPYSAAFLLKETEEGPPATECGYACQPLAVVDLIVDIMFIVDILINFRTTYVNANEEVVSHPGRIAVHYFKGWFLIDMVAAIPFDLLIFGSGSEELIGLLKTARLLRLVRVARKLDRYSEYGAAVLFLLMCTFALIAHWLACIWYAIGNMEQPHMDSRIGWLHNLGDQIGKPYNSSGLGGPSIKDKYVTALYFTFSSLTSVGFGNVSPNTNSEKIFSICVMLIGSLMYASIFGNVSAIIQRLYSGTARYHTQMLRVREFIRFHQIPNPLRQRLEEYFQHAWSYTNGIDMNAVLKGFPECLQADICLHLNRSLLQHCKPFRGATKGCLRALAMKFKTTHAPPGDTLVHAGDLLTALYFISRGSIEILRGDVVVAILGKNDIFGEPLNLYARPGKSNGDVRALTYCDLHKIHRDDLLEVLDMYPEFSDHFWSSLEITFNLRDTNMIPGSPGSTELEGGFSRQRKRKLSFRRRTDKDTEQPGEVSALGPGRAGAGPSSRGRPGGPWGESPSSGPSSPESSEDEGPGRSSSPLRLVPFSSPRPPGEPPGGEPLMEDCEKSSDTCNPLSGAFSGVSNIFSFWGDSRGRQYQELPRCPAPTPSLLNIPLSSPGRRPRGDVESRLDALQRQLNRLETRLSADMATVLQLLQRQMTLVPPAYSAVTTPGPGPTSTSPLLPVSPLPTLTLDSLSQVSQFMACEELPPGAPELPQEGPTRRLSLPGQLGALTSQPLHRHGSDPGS

BeKm-1
state dependence of channel-toxin interaction [1]: toxin binds preferentially to the closed channels while inactivation promotes toxin unbinding

DRDSCVDKSRCAKYGYFQECTDCCKKYGHNGGTCMFFKCKCA (disulfide 5-23, 11-34, 20-39, 24-41) [CmERG1]
slope of dose-response curve (logistic equation) ([2]; CHO cells stably expressing hERG1, 1 nM to 1 µM, tail currents at −120 mV): 1.1 ± 0.05
IC50 ([2]; CHO cells stably expressing hERG1, tail currents at −120 mV after preconditioning at 60 mV for 500 ms every 5 s, 1 nM to 1 µM, logistic fit, mean ± S.E., n = 3-6 cells per concentration, read-out: IC50, inhibition of hERG1 currents): 3.4 ± 0.2 nM
onset and reversibility of block ([2]; CHO-hERG1 patch clamp, application at 1 µM and washout, pulses every 5 s): blocks channels in a fast and reversible manner
block of hERG1 current, in words ([2]; CHO-hERG1 patch clamp, highest concentration 1 µM (n = 3)): completely blocks hERG1 current; also recorded: able to almost completely block the channels; also recorded: full blocking
block of hERG1 current ([2]; CHO-hERG1 patch clamp, maximal block): 100%
effect on kinetics of the closing (deactivation) process ([2]; CHO-hERG1 patch clamp, representative currents at 300 nM and 3 nM): does not accelerate the kinetics of the closing process; also recorded: absence of deactivation process acceleration
difference in efficiency at a total block of current between CmERG1 and CnERG1 ([2]; CmERG1 versus CnERG1): 10%
activity on hERG1 channels, in words (venom fraction screening / purified peptide) [2]: active on hERG1
activity on hERG1 channels, in words (venom fraction screening / purified peptide) ([2]; listed as peptide corresponding to 4792.88 Da): confirmed the activity of this peptide against hERG1
V1/2 for activation (potential of half activation) in presence of toxin ([3]; Boltzmann fit, control −37.5 ± 1.4 mV, mean ± SE, n = 4 or n = 5, paired t-test): -34.8 ± 0.8 mV
effect on total current / voltage dependence of activation, in words ([3]; n = 4, paired sample t-test at 0.05 level): reduces the total current with a tendency to modify the potential of half activation
slope of voltage dependence of inactivation in presence of toxin ([4]; Boltzmann fit, control 28.2 ± 2.2, mean ± SE): 29 ± 1.5
V1/2 for inactivation in presence of toxin ([4]; Boltzmann fit, control −77.6 ± 3.6 mV, mean ± SE): −79 ± 1.3 mV
effect on voltage dependence of steady state inactivation, in words ([4]; paired sample t-test at 0.05 level): does not induce significant changes on the voltage dependence of inactivation; also recorded: no modification of the steady state inactivation

Margatoxin
inhibition of Kv1.2, in words [5]: block also Kv1.1 and Kv 1.2
inhibition of Kv1.3, in words [6]: potent and specific blocker
inhibition of Kv1.3, in words ([6]; listed as Margatoxin 1): potent inhibitor
inhibition of Kv1.1, in words [7]: block also Kv1.1
